What was measured:
[1] = system: ALK tyrosine 1507 (Y1507) phosphorylation (Y527 in NPM-ALK); test: ALK Y1507 phosphorylation in SU-DHL-1 cells by western blot; type: cell-based, human; conditions: for inhibition at 0.1 µM: Homo sapiens, read-out: inhibition of ALK Y1507 phosphorylation; for treatment time after which p-ALK was significantly inhibited: SU-DHL-1 cells, 30 nM, time course
[2] = system: STAT3 tyrosine 705 (Y705) phosphorylation; test: STAT3 Y705 phosphorylation in SU-DHL-1 cells by western blot; type: cell-based, human; conditions: for inhibition at 0.1 µM: Homo sapiens, SU-DHL-1, read-out: inhibition of STAT3 Y705 phosphorylation; for treatment time after which p-STAT3 was significantly inhibited: SU-DHL-1 cells, 30 nM, time course
[3] = system: EML4-ALK fusion protein variant 3; conditions: NCI-H2228 cells; for duration of EML4-ALK degradation and signaling pathway inhibition / time of maximum degradation of EML4-ALK: 60 nM, time course; for reduction of EML4-ALK protein levels / effect on EML4-ALK protein levels: 100 nM, 16 h
[4] = target: NPM-ALK fusion protein (Homo sapiens, UniProt P06748+Q9UM73); test: NPM-ALK fusion protein levels in SU-DHL-1 cells by western blot; type: cell-based; conditions: for duration of NPM-ALK degradation and ALK signaling inhibition / time at which significant (>50%) NPM-ALK degradation was achieved / time of maximum degradation of NPM-ALK / effect on fused ALK (NPM-ALK) protein levels: 30 nM; for duration of NPM-ALK degradation and ALK signaling inhibition / time at which significant (>50%) NPM-ALK degradation was achieved / time of maximum degradation of NPM-ALK: time course; for reduction of the ALK fusion protein levels: 100 nM; for reduction of the ALK fusion protein levels / effect on fused ALK (NPM-ALK) protein levels: 16 h; for hook effect: up to 100 nM degrader
[5] = system: SU-DHL-1 cells; test: cell death / toxicity observed in SU-DHL-1 cells during blot experiments; type: cell-based
[6] = system: NCI-H2228 cells; test: NCI-H2228 cell proliferation, CellTiter-Glo cell viability assay; type: cell-based, human
[7] = mouse pharmacokinetic; type: in vivo, male Swiss Albino mice; conditions: single 50 mg/kg IP
[8] = tolerability in the mouse PK study; conditions: 50 mg/kg IP
[9] = system: ALK downstream signaling (p-ALK, p-STAT3); test: ALK downstream signaling pathway inhibition in SU-DHL-1 cells by western blot; type: cell-based, human; conditions: 30 nM
[10] = system: SU-DHL-1 cells; test: SU-DHL-1 cell proliferation, CellTiter-Glo luminescent cell viability assay; type: cell-based, human; conditions: 3 days

Row | Structure (SMILES) | inhibition at 0.1 µM [1] [%] | treatment time after which p-ALK was significantly inhibited [1] [h] | inhibition at 0.1 µM [2] [%] | treatment time after which p-STAT3 was significantly inhibited [2] [h] | duration of EML4-ALK degradation and signaling pathway inhibition [3] | time of maximum degradation of EML4-ALK [3] [h] | reduction of EML4-ALK protein levels [3] | duration of NPM-ALK degradation and ALK signaling inhibition [4] | time at which significant (>50%) NPM-ALK degradation was achieved [4] [h] | time of maximum degradation of NPM-ALK [4] [h] | reduction of the ALK fusion protein levels [4] | hook effect [4] | concentrations leading to significant cell death / toxic to cells [5] | sensitivity of proliferation in comparison with SU-DHL-1 cells [6] | fold less active than corresponding degrader in signaling pathway inhibition [9] | cell growth inhibition [10] | effect on EML4-ALK protein levels [3] | effect on fused ALK (NPM-ALK) protein levels [4] | further results
1 | Cc1cc(Nc2ncc(Cl)c(Nc3ccccc3S(=O)(=O)C(C)C)n2)c(OC(C)C)cc1C1CCN(CC(=O)NCCOCCOCCOCCOCCOCCNc2cccc3c2C(=O)N(C2CCC(=O)NC2=O)C3=O)CC1 (stereo not shown) [Compound 5, 2-(4-(4-((5-Chloro-4-((2-(isopropylsulfonyl)phenyl)amino)pyrimidin-2-yl)amino)-5-isopropoxy-2-methylphenyl)piperidin-1-yl)-N-(17-((2-(2,6-dioxopiperidin-3-yl)-1,3-dioxoisoindolin-4-yl)amino)-3,6,9,12,15-pentaoxaheptadecyl)acetamide] | > 90 | 2 | > 90 | 2 | at least 24 hours | 16 | Over 90% | at least 24 hours | 4 | 16 | Over 90% | did not observe the “hook effect” | above 100 nM | less sensitive | – | – | – | – | –
2 | Cc1cc(Nc2ncc(Cl)c(Nc3ccccc3S(=O)(=O)C(C)C)n2)c(OC(C)C)cc1C1CCN(CC(=O)NCCNc2cccc3c2C(=O)N(C2CCC(=O)NC2=O)C3=O)CC1 (stereo not shown) [Compound 6, 2-(4-(4-((5-chloro-4-((2-(isopropylsulfonyl)phenyl)amino)pyrimidin-2-yl)amino)-5-isopropoxy-2-methylphenyl)piperidin-1-yl)-N-(2-((2-(2,6-dioxopiperidin-3-yl)-1,3-dioxoisoindolin-4-yl)amino)ethyl)acetamide] | > 90 | 2 | > 90 | 2 | at least 24 hours | 16 | Over 90% | at least 24 hours | 4 | 16 | Over 90% | did not observe the “hook effect” | above 100 nM | less sensitive | – | – | – | – | highest plasma concentration [7]: 3,000 nM; time of highest plasma concentration post dosing [7]: 2 h; clinical signs [8]: no clinical signs were observed; tolerability [8]: well tolerated
3 | Cc1cc(Nc2ncc(Cl)c(Nc3ccccc3S(=O)(=O)C(C)C)n2)c(OC(C)C)cc1C1CCN(CC(=O)NCCOCCOCCOCCOCCOCCNc2cccc3c2C(=O)N(C2CCC(=O)N(C)C2=O)C3=O)CC1 (stereo not shown) [Compound 7, 2-(4-(4-((5-Chloro-4-((2-(isopropylsulfonyl)phenyl)amino)pyrimidin-2-yl)amino)-5-isopropoxy-2-methylphenyl)piperidin-1-yl)-N-(17-((2-(1-methyl-2,6-dioxopiperidin-3-yl)-1,3-dioxoisoindolin-4-yl)amino)-3,6,9,12,15-pentaoxaheptadecyl)acetamide] | – | – | – | – | – | – | – | – | – | – | – | – | – | less sensitive | over 10 fold | incomplete inhibition | did not significantly affect | did not reduce | –
4 | Cc1cc(Nc2ncc(Cl)c(Nc3ccccc3S(=O)(=O)C(C)C)n2)c(OC(C)C)cc1C1CCN(CC(=O)NCCNc2cccc3c2C(=O)N(C2CCC(=O)N(C)C2=O)C3=O)CC1 (stereo not shown) [Compound 8, 2-(4-(4-((5-chloro-4-((2-(isopropylsulfonyl)phenyl)amino)pyrimidin-2-yl)amino)-5-isopropoxy-2-methylphenyl)piperidin-1-yl)-N-(2-((2-(1-methyl-2,6-dioxopiperidin-3-yl)-1,3-dioxoisoindolin-4-yl)amino)ethyl)acetamide] | – | – | – | – | – | – | – | – | – | – | – | – | – | less sensitive | over 10 fold | incomplete inhibition | did not significantly affect | did not reduce | –
5 | Cc1cc(Nc2ncc(Cl)c(Nc3ccccc3S(=O)(=O)C(C)C)n2)c(OC(C)C)cc1C1CCNCC1 [ceritinib, reference compound] | – | – | – | – | – | – | – | – | – | – | – | – | above 100 nM | – | – | – | did not significantly affect | did not significantly change | inhibition of downstream signaling compared with the degraders [9]: more potent
